# According to patent publication US9820957B2, “Methods of treating autoimmunity” (IM Therapeutics, Inc., priority 2016, dated 2017):
# Columns and labels:
# [1] = tested on: HLA-DQ8 antigen presenting cells with insulin responsive CD4 T cell receptor (TCR) transductant; assay: Inhibition of DQ8 antigen presentation in vitro, insulin responsive TCR transductant, IL-2 ELISA; format: cell-based; settings: for inhibition of insulin responsive TCR transductant (secreted IL-2): 4 hours with peptide and compound, then overnight with transductant; for IC50 compared between the enantiomers: insulin responsive TCR transductant
# Protocol: (§1) Inhibition of DQ8 antigen presentation by the D- and L-enantiomers of α-methyldopa was tested and compared in vitro. HLA-DQ8 antigen presenting cells were cultured with a fixed concentration of peptide and a concentration of D- or L-α-methyldopa for 4 hours. TCR transductants were then added to each culture condition and cultured overnight. Secreted IL-2 from the TCR transductant was measured by ELISA for each condition.
# (§2) In these figures, 0 represents the TCR transductant response to peptide without the addition of α-methyldopa. No antigen IL-2 responses (negative control) were very low at <2 pg/ml. Results are presented as mean+/− SEM.
# DQ8-restricted T cell = assay: Pharmacodynamics in DQ8 transgenic mice: ex vivo splenocytes stimulating a DQ8-restricted T cell to deamidated gliadin peptide; settings: 4 mg by oral gavage daily for 5 days
# Excerpt: Ex vivo splenocytes were used to stimulate a DQ8-restricted T cell to a deamidated gliadin peptide.
# [2] = tested on: HLA-DQ8 antigen presenting cells with gliadin-responsive CD4 T cell receptor (TCR) transductant; assay: Inhibition of DQ8 antigen presentation in vitro, gliadin-responsive TCR transductant, IL-2 ELISA; format: cell-based; settings: for inhibition of gliadin-responsive TCR transductant (secreted IL-2): 4 hours with peptide and compound, then overnight with transductant; for IC50 compared between the enantiomers: gliadin-responsive TCR transductant
# Protocol: as §1, §2
# [3] = cited from earlier work; for decarboxylation to α-methyl-dopamine in patients: Sjoerdsma et al. 1963, urine of treated patients
# [4] = Oral pharmacokinetics in HLA-DQ8 transgenic mice, plasma by HPLC-MS; format: in vivo; settings: oral gavage, 4 mg
# Protocol: Separate cohorts of HLA-DQ8 transgenic mice (n=2) were gavaged with a specific dose of L- and D-α-methyldopa, followed by the collection of plasma 90 minutes later. […] Similarly, separate cohorts of mice (n=3) were gavaged with a specific enantiomer (D or L enantiomer) and dose (4 mg by gavage) of α-methyldopa followed by the collection of plasma at baseline, 1, 2, 4, 6, and 18 hours later. […] In these PK studies the Lower Limit of Quantification (LLOQ) was <2.5 ng/ml. Results are presented as mean+/− SEM.
Compound,inhibition of insulin responsive TCR transductant (secreted IL-2) [1],IC50 compared between the enantiomers [1],inhibition of the DQ8-restricted T cell response to deamidated gliadin peptide (DQ8-restricted T cell),response to positive control stimulus (anti-CD3) (DQ8-restricted T cell),inhibition of gliadin-responsive TCR transductant (secreted IL-2) [2],IC50 compared between the enantiomers [2],absorption in humans compared with the other isomer ([3]; Au et al. 1972),decarboxylation to α-methyl-dopamine in patients [3],"pharmacologic activity ([3]; prior art view, Du et al., Gillespie et al. 1962)",time to maximum plasma concentration (Tmax) compared with the other enantiomer [4]
"C[C@@](N)(Cc1ccc(O)c(O)c1)C(=O)O [D-α-methyldopa, D-α-Methyl-3,4-dihydroxyphenylalanine]",blocked in a dose-dependent manner,statistically similar IC50 values,inhibition of the T cell response is observed,not different between the groups,blocked in a dose-dependent manner,statistically similar IC50 values,much less readily absorbed,did not decarboxylate,no pharmacologic activity,
"C[C@](N)(Cc1ccc(O)c(O)c1)C(=O)O [L-α-methyldopa, L-α-Methyl-3,4-dihydroxyphenylalanine, reference compound]",blocked in a dose-dependent manner,statistically similar IC50 values,only for the D enantiomer,not different between the groups,blocked in a dose-dependent manner,statistically similar IC50 values,,α-methyl-dopamine did appear in the urine,,slightly slower
